# Laboratory results published in patent publication US20030004172A1, “Fused pyrimidinone matrix metalloproteinase inhibitors” (priority 2001, published 2003).
# Biological target: MMP-13CD (catalytic domain of collagenase-3) (Homo sapiens, UniProt P45452)
# Experiment: Thiopeptolide substrate hydrolysis inhibition assay, MMP-13CD
# Format: biochemical
# Conditions: Table I; thiopeptolide substrate, HEPES pH 7.0, 22° C.; read-out: MMP-13CD IC50
# Source text: Thiopeptolide substrates show virtually no decomposition or hydrolysis at or below neutral pH in the absence of a matrix metalloproteinase enzyme.
row,Structure (SMILES),IC50
1,"COc1ccc(CNC(=O)c2cc3c(=O)n(CC4CCCCC4)c(=O)n(C)c3s2)cc1 [Example 70, 3-cylcohexylmethyl-1-methyl-2,4-dioxo-1,2,3,4-tetrahydro-thieno[2,3-d]pyrimidine-6-carboxylic acid-4methoxy-benzylamide]",119 nM
2,"O=C(OCc1ccoc1)c1cc2c(=O)n(Cc3ccccc3)c(=O)[nH]c2s1 [Example 71, 3-Benzyl-2,4-dioxo-1,2,3,4-tetrahydro-thieno[2,3-d]pyrimidine-6-carboxylic acid furan-3-ylmethyl ester]",13000 nM
3,"Cn1c(=O)n(Cc2ccccc2)c(=O)c2cc(C(=O)OCc3c(F)c(F)c(F)c(F)c3F)sc21 [Example 72, 3-Benzyl-1-methyl-2,4-dioxo-1,2,3,4-tetrahydro-thieno[2,3-d]pyrimidine-6-carboxylic acid pentafluorophenylmethyl ester]",> 100000 nM
4,"O=C(OCc1ccccc1)c1cc2c(=O)n(Cc3ccccc3)c(=O)n(CC3CC3)c2s1 [Example 74, 3-Benzyl-1-cyclopropylmethyl-2,4-dioxo-1,2,3,4-tetrahydro-thieno[2,3-d]pyrimidine-6-carboxylic acid benzyl ester]",71500 nM
5,"Cn1c(=O)n(Cc2ccccc2)c(=O)c2cc(C(=O)NCc3ccncc3)sc21 [Example 75, 3-Benzyl-1-methyl-2,4-dioxo-1,2,3,4-tetrahydro-thieno[2,3-d]pyrimidine-6-carboxylic acid (pyridin-4-ylmethyl)-amide]",345 nM
6,"Cn1c(=O)n(Cc2ccc(C(=O)O)cc2)c(=O)c2cc(C(=O)NCc3cccc(OC(F)F)c3)sc21 [Example 77, 4-[6-(3-Difluoromethoxy-benzylcarbamoyl)-1-methyl-2,4-dioxo-1,4-dihydro-2H-thieno[2,3-d]pyrimidin-3-ylmethyl]-benzoic acid]",6.55 nM
7,"Cn1c(=O)n(Cc2ccc(C(=O)OC(C)(C)C)cc2)c(=O)c2cc(C(=O)NCc3cccc(OC(F)F)c3)sc21 [Example 78, 4-[6-(3-Difluoromethoxy-benzylcarbamoyl)-1-methyl-2,4-dioxo-1,4-dihydro-2H-thieno[2,3-d]pyrimidin-3-ylmethyl]-benzoic acid tert-butyl ester]",900 nM
8,"COc1cccc(CNC(=O)c2cc3c(=O)n(Cc4ccc(C(=O)O)cc4)c(=O)n(C)c3s2)c1 [Example 79, 4-[6-(3-Methoxy-benzylcarbamoyl)-1-methyl-2,4-dioxo-1,4-dihydro-2H-thieno[2,3-d]pyrimidin-3-ylmethyl]-benzoic acid]",2.05 nM
9,"Cn1c(=O)n(Cc2ccc(C(=O)OC(C)(C)C)cc2)c(=O)c2cc(C(=O)NCc3ccc(S(C)(=O)=O)cc3)sc21 [Example 80, 4-[6-(4-Methanesulfonyl-benzylcarbamoyl)-1-methyl-2,4-dioxo-1,4-dihydro-2H-thieno[2,3-d]pyrimidin-3-ylmethyl]-benzoic acid tert-butyl ester]",25000 nM
10,"Cn1c(=O)n(Cc2ccc(C(=O)O)cc2)c(=O)c2cc(C(=O)NCc3ccc(S(C)(=O)=O)cc3)sc21 [Example 81, 4-[6-(4-Methanesulfonyl-benzylcarbamoyl)-1-methyl-2,4-dioxo-1,4-dihydro-2H-thieno[2,3-d]pyrimidin-3-ylmethyl]-benzoic acid]",3900 nM
11,"Cn1c(=O)n(Cc2ccc(C(=O)O)cc2)c(=O)c2cc(C(=O)NCCc3ccncc3)sc21 [Example 82, 4-[1-Methyl-2,4-dioxo-6-(2-pyridin-4-yl-ethylcarbamoyl)-1,4-dihydro-2H-thieno[2,3-d]pyrimidin-3-ylmethyl]-benzoic acid]",3700 nM
12,"COc1cccc(CNC(=O)c2cc3c(=O)n(Cc4ccc(OC(F)(F)F)cc4)c(=O)n(C)c3s2)c1 [Example 83, 1-Methyl-2,4-dioxo-3-(4-trifluoromethoxy-benzyl)-1,2,3,4-tetrahydro-thieno[2,3-d]pyrimidine-6-carboxylic acid 3-methoxy-benzylamide]",140 nM
13,"COC(=O)c1ccc(Cn2c(=O)c3cc(C(=O)NCc4cccc(OC)c4)sc3n(C)c2=O)cc1 [Example 84, 4-[6-(3-Methoxy-benzylcarbamoyl)-1-methyl-2,4-dioxo-1,4-dihydro-2H-thieno[2,3-d]pyrimidin-3-ylmethyl]-benzoic acid methyl ester]",20.5 nM
14,"COc1cccc(CNC(=O)c2cc3c(=O)n(Cc4ccc5c(c4)OCC5)c(=O)n(C)c3s2)c1 [Example 85, 3-(2,3-Dihydro-benzofuran-6-ylmethyl)-1-methyl-2,4-dioxo-1,2,3,4-tetrahydro-thieno[2,3-d]pyrimidine-6-carboxylic acid 3-methoxy-benzylamide]",47.5 nM
15,"COc1cccc(CNC(=O)c2cc3c(=O)n(Cc4cnc(C)s4)c(=O)n(C)c3s2)c1 [Example 86, 1-Methyl-3-(2-methyl-thiazol-5-ylmethyl)-2,4-dioxo-1,2,3,4-tetrahydro-thieno[2,3-d]pyrimidine-6-carboxylic acid 3-methoxy-benzylamide]",1400 nM

# More lines, now with the values ahead:
row,IC50,Structure (SMILES)
1,18.5 nM,"Cn1c(=O)n(Cc2ccc(-c3nnn[nH]3)cc2)c(=O)c2cc(C(=O)NCc3ccc(F)cc3)sc21 [Example 87, 1-Methyl-2,4-dioxo-3-[4-(1H-tetrazol-5-yl)-benzyl]-1,2,3,4-tetrahydro-thieno[2,3-d]pyrimidine-6-carboxylic acid 4-fluoro-benzylamide]"
2,3150 nM,"COc1nc2sc(C(=O)OCc3ccccc3)cc2c(=O)n1Cc1ccccc1 [Example 88, 3-Benzyl-2-methoxy-4-oxo-3,4-dihydro-thieno[2,3-d]pyrimidine-6-carboxylic acid benzyl ester]"
3,113 nM,"COc1cccc(CNC(=O)c2cc3c(=O)n(Cc4ccc(C(=O)OCOC(=O)C(C)(C)C)cc4)c(=O)n(C)c3s2)c1 [Example 89, 4-[6-(3-Methoxy-benzylcarbamoyl)-1-methyl-2,4-dioxo-1,4-dihydro-2H-thieno[2,3-d]pyrimidin-3-ylmethyl]-benzoic acid 2,2-dimethyl-propionyloxymethyl ester]"
4,5.43 nM,"COc1cccc(CNC(=O)c2cc3c(=O)n(CC4CCC(C(=O)O)CC4)c(=O)n(C)c3s2)c1 (stereo not drawn) [Example 90, 4-[6-(3-Methoxy-benzylcarbamoyl)-1-methyl-2,4-dioxo-1,4-dihydro-2H-thieno[2,3-d]pyrimidin-3-ylmethyl]-cyclohexanecarboxylic acid]"
5,49.6 nM,"COC(=O)C1CCC(Cn2c(=O)c3cc(C(=O)NCc4cccc(OC)c4)sc3n(C)c2=O)CC1 (stereo not drawn) [Example 91, 4-[6-(3-Methoxy-benzylcarbamoyl)-1-methyl-2,4-dioxo-1,4-dihydro-2H-thieno[2,3-d]pyrimidin-3-ylmethyl]-cyclohexanecarboxylic acid methyl ester]"
6,10.9 nM,"COC(=O)C1(c2ccc(Cn3c(=O)c4cc(C(=O)NCc5cccc(OC)c5)sc4n(C)c3=O)cc2)CC1 [Example 92, 1-{4-[6-(3-Methoxy-benzylcarbamoyl)-1-methyl-2,4-dioxo-1,4-dihydro-2H-thieno[2,3-d]pyrimidin-3-ylmethyl]-phenyl}-cyclopropanecarboxylic acid methyl ester]"
7,111 nM,"COc1cccc(CNC(=O)c2cc3c(=O)n(Cc4ccc(C5(C(=O)OC(C)(C)C)CC5)cc4)c(=O)n(C)c3s2)c1 [Example 93, 1-{4-[6-(3-Methoxy-benzylcarbamoyl)-1-methyl-2,4-dioxo-1,4-dihydro-2H-thieno[2,3-d]pyrimidin-3-ylmethyl]-phenyl}-cyclopropanecarboxylic acid tert-butyl ester]"
8,5.35 nM,"COc1cccc(CNC(=O)c2cc3c(=O)n(Cc4ccc(C5(C(=O)O)CC5)cc4)c(=O)n(C)c3s2)c1 [Example 94, 1-{4-[6-(3-Methoxy-benzylcarbamoyl)-1-methyl-2,4-dioxo-1,4-dihydro-2H-thieno[2,3-d]pyrimidin-3-ylmethyl]-phenyl}-cyclopropanecarboxylic acid]"
9,103 nM,"COc1cccc(CNC(=O)c2cc3c(=O)n(Cc4ccc(OC(C)(C)C(=O)OC(C)(C)C)cc4)c(=O)n(C)c3s2)c1 [Example 95, 2-{4-[6-(3-Methoxy-benzylcarbamoyl)-1-methyl-2,4-dioxo-1,4-dihydro-2H-thieno[2,3-d]pyrimidin-3-ylmethyl]-phenoxy}-2-methyl-propionic acid tert-butyl ester]"
10,18.5 nM,"COc1cccc(CNC(=O)c2cc3c(=O)n(Cc4ccc(OC(C)(C)C(=O)O)cc4)c(=O)n(C)c3s2)c1 [Example 96, 2-{4-[6-(3-Methoxy-benzylcarbamoyl)-1-methyl-2,4-dioxo-1,4-dihydro-2H-thieno[2,3-d]pyrimidin-3-ylmethyl]-phenoxy}-2-methyl-propionic acid]"
11,> 100000 nM,"Cn1c(=O)n(Cc2ccccc2)c(=O)c2cc(C(=O)OCc3ccccc3)oc21 [Example 97, 3-Benzyl-1-methyl-2,4-dioxo-1,2,3,4-tetrahydro-furo[2,3-d]pyrimidine-6-carboxylic acid benzyl ester]"
12,63 nM,"COc1cccc(Cn2c(=O)c3cc(C(=O)OCc4ccccc4)sc3n(C)c2=O)c1 [Example 98, 3-(3-Methoxy-benzyl)-1-methyl-2,4-dioxo-1,2,3,4-tetrahydro-thieno[2,3-d]pyrimidine-6-carboxylic acid benzyl ester]"
13,610 nM,"Cn1c(=O)n(Cc2ccc(-c3ccccc3)cc2)c(=O)c2cc(C(=O)OCc3ccccc3)sc21 [Example 100, 3-Biphenyl-4-ylmethyl-1-methyl-2,4-dioxo-1,2,3,4-tetrahydro-thieno[2,3-d]pyrimidine-6-carboxylic acid benzyl ester]"
14,34 nM,"Cn1c(=O)n(Cc2ccc(S(C)(=O)=O)cc2)c(=O)c2cc(C(=O)OCc3ccccc3)sc21 [Example 101, 3-(4-Methanesulfonyl-benzyl)-1-methyl-2,4-dioxo-1,2,3,4-tetrahydro-thieno[2,3-d]pyrimidine-6-carboxylic acid benzyl ester]"
15,34 nM,"Cn1c(=O)n(Cc2ccc(S(C)(=O)=O)cc2)c(=O)c2cc(C(=O)OCc3ccccc3)sc21 [Example 102, 3-(4-Methanesulfonyl-benzyl)-1-methyl-2,4-dioxo-1,2,3,4-tetrahydro-thieno[2,3-d]pyrimidine-6-carboxylic acid benzyl ester]"
